Measured values published in patent publication US9522163B2, “Methods of treating hepatitis” (priority 2002, dated 2016).

How the values were obtained:
[1] = system: primary rat hepatocytes; test: TNF-α induced apoptosis in rat hepatocytes; assay type: cell-based; conditions: exposure to CO
Description: Cells were treated with TNF-α (10 ng/ml) and actinomycin-D (Act-D; 200 ng/ml, Sigma Chemical Co. St. Louis, Mo.) to induce cell death.
Thus, the effects of CO were independent of the cGMP/p38 MAPK pathway. In these experiments, hepatocytes were pre-treated with CO for one hour prior to addition of TNF-α/ActD to the medium.

[2] = system: iNOS; test: iNOS promoter luciferase reporter assay in hepatocytes; assay type: cell-based; conditions: CO 250 ppm
Description: In some experiments, gene transfer of an IκBα superrepressor (Hellerbrand et al., Hepatology 27:1285-1295 (1998)) or β-galactosidase using adenoviral vectors (10 pfu/cell) was performed 12 hours prior to TNF-α/ActD treatment. NF-κB activation was evaluated using a luciferase reporter assay as described in Chow et al. (J. Biol. Chem. 274: 10689-10692 (1999)). Briefly, hepatocytes were co-transfected with NF-κB reporter constructs (pGL3-kappaβ luciferase, 100 ng/well; and pIEP-Lac-z 0.5 μg/well) using Lipofectin™ (Invitrogen, Carlsbad, Calif.) as instructed by the manufacturer. Evaluation of iNOS expression was performed using a luciferase reporter assay as described in Lowenstein et al. (Proc. Natl. Acad. Sci. U.S.A 90: 9730-9734 (1993)). Briefly, hepatocytes were co-transfected with iNOS promoter reporter constructs (pXP2; 1 μg/well) and pIEP-LacZ (0.5 μg/well) as described above.
Hepatocytes were transfected with plasmids as described above and treated with various stimuli 24 hours after transfection. Luciferase activity (reported as arbitrary units; A.U.) was assayed 6 hours after initiation of treatment, using a luciferase assay kit (Promega, Madison, Wis.) and a Berthold Luminometer. Results were corrected for transfection efficiency and protein concentration. […]

[3] = system: iNOS; test: Liver iNOS expression (immunoblot, immunostaining); assay type: in vivo, mice
Description: Western blot analysis was performed on primary hepatocytes in culture or from liver homogenates with antibodies to iNOS (Transduction Laboratories, Lexington, Ky.; 1:1000), HO-1 (Calbiochem; 1:2000), or β-actin (Sigma Chemical; 1:5000). Thirty μg protein in cell culture experiments or 100 μg protein from liver homogenates was loaded per well for SDS-PAGE.
For histology and immunohistochemistry, livers were fixed in 2% paraformaldehyde and then snap frozen in liquid nitrogen. Livers were then sectioned (7 microns thick) and stained with hematoxylin and eosin (H&E). Liver sections were also stained for TUNEL and activated caspase-3 using kits according to the manufacturer's instructions (Promega). Sections for iNOS immunocytochemistry were blocked with 5% goat serum containing 0.2% bovine serum albumin. Thereafter, sections were incubated for 1 hour at room temperature with anti-iNOS antibody (Transduction Laboratories; 1:300), then washed and probed with a secondary antibody conjugated to Alexa-488 (Molecular Probes, Eugene, Oreg.). Nuclei were stained with Hoechst dye. Images were acquired using an Olympus Provus microscope. Hepatocytes in culture were plated on gelatinized coverslips, stimulated as indicated, and then fixed in 2% paraformaldehyde containing 0.1% Triton X-100. […]

Q: What does the source list for `[C-]#[O+]` [CO, carbon monoxide]?
A: TNF-α induced apoptosis [1]: inhibited TNF-α induced apoptosis; iNOS luciferase reporter activity [2]: highly significant increase in activity; Liver iNOS expression ([3]; CO 250 ppm 1 hr prior to TNF-α/D-gal, livers six hours later): markedly increased; Liver iNOS expression, CO without TNF-α/D-gal ([3]; immunostaining): modest increase
